Values joined by “and” are separate entries in the source; they are usually repeats but may differ in a detail not shown here. Equal values may be shown once. Where a name gives a salt, the structure may show the parent alone. Read-outs that look alike come from different tables or passages of the source. One block for each molecule: values may come before it.
Columns and labels:
[1] = molecular target: T1, recombinant human MGAT2 enzyme (Homo sapiens, UniProt Q3SYC2); assay: Test for human MGAT2 activity inhibitory action (14C-oleoyl CoA, recombinant enzyme microsomes); assay type: biochemical; parameters: key to Potency relative to Comparative Example 1 (higher = more potent): % inhibition = {1−(C−B)/(A−B)}×100, B = 10 μM Comparative Example 1
T1 construct: made in house; host or cells: CHO-K1 (Jump-In CHO-K1 Kit, Life Technologies); microsomal fraction used as the enzyme solution
T1 sequence (Q3SYC2 whole entry): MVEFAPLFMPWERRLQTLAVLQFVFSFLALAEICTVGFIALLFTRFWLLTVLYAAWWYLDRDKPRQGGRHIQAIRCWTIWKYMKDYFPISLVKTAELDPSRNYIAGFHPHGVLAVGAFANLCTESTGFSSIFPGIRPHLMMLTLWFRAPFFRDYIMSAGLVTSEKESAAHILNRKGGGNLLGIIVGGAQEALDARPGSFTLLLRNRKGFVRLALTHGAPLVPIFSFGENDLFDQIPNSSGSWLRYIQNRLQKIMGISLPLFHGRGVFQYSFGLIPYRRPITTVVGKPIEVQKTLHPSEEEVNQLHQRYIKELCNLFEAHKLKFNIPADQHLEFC
Summary of the method: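 Microsomes from CHO-K1 cells expressing human MGAT2 (0.67 μg/mL) reacted 30 min at 37 °C with 50 μM 2-monooleoyl glycerol, 50 μM oleoyl CoA, 2.2 μM 1-14C-oleoyl CoA and 8.3 μM orlistat in 50 mM Tris pH 7.4, 6 mM MgCl2, 2 mg/mL BSA, 0.3% DMSO. Heptane-extracted 14C counted; inhibition normalized between no-compound and 10 μM reference-compound controls.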

[2] = tested on: orally lipid-loaded mouse model (C57BL/6J mice); assay: Test for lipid absorption inhibitory action (orally lipid-loaded mouse model); assay type: in vivo; conditions: for Lipid absorption inhibition ratio (%): plasma neutral fat AUC up to 6 hours after corn oil; for lipid absorption inhibitory action (in words): 30 mg/kg, Comparative Example 1 at 100 mg/kg
Procedure: The lipid absorption inhibitory action of the compounds of Examples 5 and 60 and the compound of Comparative Example 1 was examined in an orally lipid-loaded mouse model. In this test, 10 to 11-week old male C57BL/6J mice (CLEA Japan, Inc.) were used. After the mice were fasted for 17 hours from the preceding day, blood was collected from the fundus, and further the mice were subjected to forced oral administration of one of the compounds or the medium (0.5% methyl cellulose). Thirty minutes after the administration, tyloxapol (500 mg/kg) was administered into the tail vein, and corn oil (200 μl) was orally administered (n=5-6). Blood was collected via the tail vein 2, 4, and 6 hours after the administration of corn oil, and plasma was obtained by centrifuging the blood. The neutral fat concentration in the plasma was measured by using Triglyceride E-Test Wako (Wako Pure Chemical Industries, Ltd.). The neutral fat concentration in the plasma before the administration of the compound was taken as the value at 0 hours, and the area under the curve (AUC) of the neutral fat concentration in the plasma up to 6 hours after the administration of corn oil was calculated. From the average value of the AUC of each administration group, the lipid absorption inhibition ratio was obtained by using the following formula.
Lipid absorption inhibition ratio (%)=(Average value of AUC of medium administration group-Average value of AUC of compound administration group)/Average value of AUC of medium administration group×100

[3] = tested on: C57BL/6J mice fed on high-fat diet (diet-induced obesity mouse model); assay: Test for anti-obesity action in high-fat diet fed mice; assay type: in vivo; conditions: for Body Fat Weight, average value (difference from medium administration group) / Fat-Free Weight, average value (difference from medium administration group): Day 21, quantitative NMR; for Percent Body Weight Change, average value (difference from medium administration group): forced oral once per day Day 1 to Day 22, Day 23, n=8
From the text: The anti-obesity action of the compound of Example 5 was examined in C57BL/6J mice fed on high-fat diet (Research Diets D12492). Thirteen-week old male C57BL/6J-DIO mice (CHARLES RIVER LABORATORIES JAPAN, INC.) were purchased, and fed in animal facilities under a 12-hour light/dark cycle for 13 weeks on the diet of D12492. From six days before the administration of the compound, the animals were habituated by inserting a tube for forced oral administration into the stomach once per day. One day before the administration of the compound, the mice were randomized on the basis of the body weight, and divided into groups (n=8). From Day 1 to Day 22, forced oral administration of the compound or a medium (0.5% methyl cellulose) was conducted once per day. The body weight was measured every day, and the body fat weight and the fat-free weight were measured by using a quantitative NMR apparatus (EcoMRI, Hitachi Aloka Medical, Ltd.) on Day 21.
The percent body weight change (Day 23, Table 6), the body fat weight (Day 21, Table 7), and the fat-free weight (Day 21, Table 8) were each expressed in terms of the difference between the average value of the compound administration group and the average value of the medium administration group, and the difference between the groups was subjected to Dunnett's multiple comparison test (significance level p=0.05). Note that, in Tables 6 to 8, “n.s.” means a non-significant difference.

[4] = 30 mg/kg, Dunnett's test versus medium group
[5] = Table 5, relative to Comparative Example 1 measured in the same run

IC50 ([1]; First Test (Table 3), read-out: IC50): 223 nM
IC50 ([1]; Second Test (Table 4), read-out: IC50): 303 nM
IC50 ([1]; Table 5, Comparative Example 1 measured alongside the Example, read-out: IC50 (nM) of Comp. Ex. 1): 210 nM and 170 nM and 150 nM and 140 nM and 295 nM and 137 nM and 180 nM and 250 nM and 300 nM and 270 nM and 240 nM and 260 nM and 160 nM and 244 nM and 200 nM
SMILES: COc1ccc(CNc2nc3c(c(=O)n2-c2ccccc2)CN(C(=O)Nc2ccc(C(F)(F)F)cc2)CC3)cc1 [Comparative Example 1, reference compound]
Lipid absorption inhibition ratio (%) ([2]; Test 1, 30 mg/kg oral): 34%
Lipid absorption inhibition ratio (%) ([2]; Test 1, 100 mg/kg oral): 44%
Lipid absorption inhibition ratio (%) ([2]; Test 2, 100 mg/kg oral): 41%

SMILES: O=C(CNCCCCCOc1ccc(C(F)(F)F)cc1)N1CCc2nc(SC3CCC3)n(-c3ccccc3)c(=O)c2C1 [Example 5, 2-cyclobutylsulfanyl-3-phenyl-6-[2-[5-[4-(trifluoromethyl)phenoxy]pentylamino]acetyl]-7,8-dihydro-5H-pyrido[4,3-d]pyrimidin-4-one trifluoroacetate]
vs Comp. Ex. 1 ([1]; First Test (Table 3), relative to Comparative Example 1, greater value = higher inhibitory action): 349
IC50 ([1]; IC50 (nM), First Test (Table 3)): 0.64 nM
lipid absorption inhibitory action (in words) [2]: not inferior to that of the compound of Comparative Example 1
Lipid absorption inhibition ratio (%) ([2]; Test 2, 30 mg/kg oral): 45%
Lipid absorption inhibition ratio (%) ([2]; Test 3, 30 mg/kg oral): 42%
Body Fat Weight, average value (difference from medium administration group) ([3]; 10 mg/kg oral once per day): -2.22 g
Fat-Free Weight, average value (difference from medium administration group) ([3]; 10 mg/kg oral once per day): -0.34 g
Percent Body Weight Change, average value (difference from medium administration group) ([3]; 10 mg/kg): −4.15%
Body Fat Weight, average value (difference from medium administration group) ([3]; 30 mg/kg oral once per day): -4.26 g
Fat-Free Weight, average value (difference from medium administration group) ([3]; 30 mg/kg oral once per day): -0.98 g
Percent Body Weight Change, average value (difference from medium administration group) ([3]; 30 mg/kg): −9.56%
body fat weight (in words) [3, 4]: significantly lowered
percent body weight change (in words) [3, 4]: significantly lowered
decrease of the fat-free body weight (in words) ([3]; 10 and 30 mg/kg, Dunnett's test versus medium group): did not have a statistically significant difference

IC50 ([1]; Table 5, Examples 25 to 60, same method, read-out: IC50): 2.2 nM
Potency relative to Comparative Example 1 (higher = more potent) [1, 5]: 117
SMILES: O=C(CCNCC#CCOc1ccc(C(F)(F)F)cc1)N1CCc2nc(SC3CCC3)n(-c3ccccc3)c(=O)c2C1 [Example 59, 2-cyclobutylsulfanyl-3-phenyl-6-[3-[4-[4-(trifluoromethyl)phenoxy]but-2-ynylamino]propanoyl]-7,8-dihydro-5H-pyrido[4,3-d]pyrimidin-4-one trifluoroacetate]

SMILES: O=C(CCNCC1COc2ccccc2O1)N1CCc2nc(SC3CCC3)n(-c3ccccc3)c(=O)c2C1 (centres unmarked) [Example 60, 2-cyclobutylsulfanyl-6-[3-(2,3-dihydro-1,4-benzodioxin-3-ylmethylamino)propanoyl]-3-phenyl-7,8-dihydro-5H-pyrido[4,3-d]pyrimidin-4-one trifluoroacetate]
IC50 ([1]; IC50 (nM), Table 5, Examples 25 to 60, same method): 1.1 nM
vs Comp. Ex. 1 [1, 5]: 140
lipid absorption inhibitory action (in words) [2]: comparable to that of the compound of Example 5
Lipid absorption inhibition ratio (%) ([2]; Test 3, 30 mg/kg oral): 42%
